Patent US20050048122A1, “Method for stabalizing timolol concentration” (Pharmacia & Upjohn Company, priority 2003, published 2005)

Assay: Storage of the aqueous ophthalmic composition in polyethylene bottles: concentration of active ingredient over time
Format: physicochemical
Details: for concentration upon storage at low temperature / concentration upon storage at room temperature: polyethylene bottles; for concentration upon storage at low temperature: low (2-8° C.) temperature
Procedure: The ophthalmic products XALATAN® (comprising approximately 50 μg/ml latanoprost) and XALCOM® (comprising approximately 50 μg/ml latanoprost and 5 mg/ml timolol) are packaged in bottles. The bottle is typically made of clear low-density polyethylene with a clear low-density polyethylene dropper tip, a high-density polyethylene screw cap, and a clear low-density polyethylene overcap. Unopened bottles are stored at 2-8° C.
While storage at recommended temperature has proven to be an effective way of maintaining product stability of the ophthalmic products, it would be desirable to store such ophthalmic products at room temperature for prolonged periods without adversely affecting the concentration(s) of the active ingredient(s).
Following extensive research, a better understanding of the above-mentioned phenomenon has now been achieved. When the polyethylene packages are stored, moisture from the composition is lost to the atmosphere. Moreover, prostaglandin itself is absorbed into or adsorbed to the bottle resin and thus removed from the composition. […] Thus, the concentration of timolol increases over time and may have undesired systemic effects upon administration to the eye. This net effect of this phenomenon is more pronounced at room temperature than at low temperature.

| SMILES | concentration upon storage at low temperature | concentration upon storage at room temperature | loss to the atmosphere or absorption/adsorption by the package material (polyethylene packages on storage) |
| --- | --- | --- | --- |
| CC(C)OC(=O)CCC/C=C\C[C@@H]1[C@@H](CC[C@@H](O)CCc2ccccc2)[C@H](O)C[C@@H]1O [latanoprost] | maintained at a nearly constant level | maintained at a nearly constant level | – |
| CC(C)(C)NC[C@H](O)COc1nsnc1N1CCOCC1 [timolol, (S)-1-[(1,1-dimethylethyl)amino]-3-[ [4-(4-morpholinyl)-1,2,5-thiadiazol-3-yl]oxy]-2-propanol] | maintained at a nearly constant level | increases gradually over time | neither lost to the atmosphere nor absorbed/adsorbed by the package material to any large extent |
